Results on two molecules are retold here after patent publication US20250375511A1 (priority 2024, published 2025).

Data set [1] is described as follows: Binding of Fe^3+ to BCG: zeta potential (Zeta Sizer Ultra). Format: physicochemical. The conditions noted are these: in water, 0.04 mg/mL BCG, 100 uM Fe(NO3)3, measured immediately. Here is the method: Zeta potential was measured immediately using a Zeta Sizer Ultra (Malvern).
Data set [2] deals with T24 cells. The class given is cell-based, human.
For data set [3], the system named is CT26.WT (mouse colon adenocarcinoma) tumors. Further details: species or system male BALB/C mice. The settings on record: in vivo.

Consider `O=[N+]([O-])[O-].O=[N+]([O-])[O-].O=[N+]([O-])[O-].[Fe+3]` [Fe^3+, Fe(NO3)3], for which, in data set [1], the zeta potential entry is given as “not detectable”. Also, in data set [2], the cell kill is on record as 1.4%.

For “Ru(4,4′-dimethyl-2,2′-bipyridine)2(2-(2′,2″:5″,2′″-terthiophene)-imidazo[4,5-f][1,10]phenanthroline) [RUVIDAR]”, in data set [3], the survival entry is “significantly increases survival, but the effect size is small” and the tumor growth entry is “tumor growth suppression”.
